Test results as given in publication doi:10.1101/158956v2 (biorxiv, 2017).

Key:
[1] = molecular target: T1, EcFumA (Escherichia coli, UniProt P0AC33); assay: spectrophotometric initial velocity; format: biochemical
T1 sequence (P0AC33 2-548): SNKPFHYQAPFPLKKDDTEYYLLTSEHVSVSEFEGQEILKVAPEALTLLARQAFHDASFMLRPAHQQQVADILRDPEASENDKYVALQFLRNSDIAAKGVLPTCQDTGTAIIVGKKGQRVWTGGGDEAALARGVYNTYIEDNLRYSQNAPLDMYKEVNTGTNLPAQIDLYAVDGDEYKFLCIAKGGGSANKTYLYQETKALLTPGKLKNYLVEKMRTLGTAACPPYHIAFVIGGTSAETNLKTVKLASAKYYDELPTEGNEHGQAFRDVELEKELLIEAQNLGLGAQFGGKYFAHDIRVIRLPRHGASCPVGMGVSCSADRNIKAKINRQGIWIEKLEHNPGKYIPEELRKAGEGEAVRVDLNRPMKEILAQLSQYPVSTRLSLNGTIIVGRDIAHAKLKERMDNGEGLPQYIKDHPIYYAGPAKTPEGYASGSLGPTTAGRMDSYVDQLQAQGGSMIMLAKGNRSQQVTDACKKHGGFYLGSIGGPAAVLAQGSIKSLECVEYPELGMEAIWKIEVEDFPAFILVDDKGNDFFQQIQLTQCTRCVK

[2] = molecular target: T2, PfFHΔ40 (PfFΔ40) (Plasmodium falciparum, UniProt Q8I2N6); assay: spectrophotometric initial velocity, global fit to competitive model; format: biochemical
T2 sequence (Q8I2N6 41-681): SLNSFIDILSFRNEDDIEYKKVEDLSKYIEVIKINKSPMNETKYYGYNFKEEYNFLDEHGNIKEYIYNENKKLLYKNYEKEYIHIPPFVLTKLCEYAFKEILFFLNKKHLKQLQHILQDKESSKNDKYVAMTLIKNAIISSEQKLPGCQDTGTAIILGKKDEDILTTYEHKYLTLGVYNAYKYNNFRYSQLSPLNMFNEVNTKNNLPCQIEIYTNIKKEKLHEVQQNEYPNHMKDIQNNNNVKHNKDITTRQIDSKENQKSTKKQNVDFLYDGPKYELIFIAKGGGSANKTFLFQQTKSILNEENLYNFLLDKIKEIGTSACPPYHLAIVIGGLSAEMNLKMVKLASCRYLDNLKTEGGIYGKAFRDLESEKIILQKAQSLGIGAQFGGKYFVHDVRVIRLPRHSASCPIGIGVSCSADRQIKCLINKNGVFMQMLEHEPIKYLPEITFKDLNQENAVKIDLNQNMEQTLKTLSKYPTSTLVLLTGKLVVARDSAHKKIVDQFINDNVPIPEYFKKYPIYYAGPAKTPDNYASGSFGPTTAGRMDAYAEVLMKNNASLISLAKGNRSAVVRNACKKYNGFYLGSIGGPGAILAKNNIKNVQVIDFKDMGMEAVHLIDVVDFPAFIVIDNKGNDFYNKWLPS

[3] = molecular target: T2, PfFHΔ40 (PfFΔ40); assay: spectrophotometric initial velocity, Michaelis-Menten fit; conditions: 50 mM Tris-HCl pH 8.5, 37 °C
[4] = molecular target: T3, EcFumC (Escherichia coli, UniProt P05042); assay: spectrophotometric initial velocity; format: biochemical
T3 sequence (P05042 1-467): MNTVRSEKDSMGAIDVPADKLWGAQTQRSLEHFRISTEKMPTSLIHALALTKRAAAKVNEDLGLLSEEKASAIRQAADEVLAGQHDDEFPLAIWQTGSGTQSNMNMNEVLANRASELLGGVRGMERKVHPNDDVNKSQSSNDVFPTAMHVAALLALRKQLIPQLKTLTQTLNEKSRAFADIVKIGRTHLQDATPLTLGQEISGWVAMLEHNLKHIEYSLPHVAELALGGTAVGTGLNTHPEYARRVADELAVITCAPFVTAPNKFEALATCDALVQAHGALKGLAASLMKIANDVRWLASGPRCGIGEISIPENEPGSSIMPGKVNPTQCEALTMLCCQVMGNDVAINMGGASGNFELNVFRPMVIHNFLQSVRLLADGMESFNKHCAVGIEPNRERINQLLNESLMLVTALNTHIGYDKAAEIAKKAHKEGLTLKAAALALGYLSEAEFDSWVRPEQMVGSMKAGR

[5] = molecular target: T2, PfFHΔ40 (PfFΔ40); assay: spectrophotometric initial velocity; format: biochemical
[6] = substrate: C/C(=C\C(=O)O)C(=O)O; assay: purified protein; conditions: 50 mM Tris-HCl pH 8.5, 37 °C
[7] = substrate: O=C(O)C[C@H](O)C(=O)O; assay: purified protein; conditions: 50 mM Tris-HCl pH 8.5, 37 °C

O=C(O)CC(S)C(=O)O (racemic) [DL-mercaptosuccinic acid]
Ki [1]: 2.9 ± 0.22 µM
Ki [2]: 0.548 ± 0.046 µM

O=C(O)/C=C/C(=O)O [fumarate]
Km [3]: 2600 ± 300 µM

O=C(O)C(O)C(O)C(=O)O (stereo not drawn) [meso-tartrate]
Ki [4]: 652 µM
Ki [1]: 625 µM
Ki [5]: 114 ± 17 µM

B1: PfFHΔ40 (PfFΔ40) (Plasmodium falciparum 3D7) (protein)
chain: T2 sequence (Q8I2N6 41-681)
Km [6]: 3200 ± 300 µM
Km [7]: 1200 ± 100 µM
